Earlier results in patent US20240032557A1, “AN IRON FORTIFIED TEA COMPOSITION” (Ekaterra Tea Manufacturing USA LLC, priority 2020, published 2024).

Details: water at 25° C.

For O=C([O-])/C=C/C(=O)[O-].[Fe+2] [ferrous fumarate], the solubility is listed as 0.14 g/100 g water.
